Key:
Magel2 KO neonates = assay: Injection of oxytocin or vasopressin in Magel2 KO neonates: rescue of feeding and survival; format: in vivo, mouse; conditions: AVP injections, whatever the dose injected
Method: Three to 5 hours after delivery, wild type pups or pups issued from a cross between an heterozygote (+/−) male with wild type females were temporally removed (10 min) from their mother, weighted and given a single s.c. (in the ventral region at the level of floating ribs) injection (20 μl) of isotonic saline or 2 μg oxytocin (Phoenix Pharmaceuticals. Inc., Catalog No. 051-01) dissolved in isotonic saline (20 μl). […] Following the same protocol, we injected vasopressin (Phoenix Pharmaceuticals. Inc., Catalog No. 065-07) at different doses. At P2, pups were scarified to be genotyped.
The results obtained with the injection of SSR 126768A OTA let us think that we might restore a normal feeding behaviour in Magel2 KO newborns with an OT injection just after birth. Early neonatal manipulation of OT was reported in the literature without alterations of the postnatal development (Cushing, B. S., et Al., 2003; Yamamoto, Y., et al., 2004; Saito, O., et Al., 2007). Initially, 28 wild type newborns were injected with an isotonic saline (20 μl) and 4 of them died at P1. Another cohort of 28 wild type newborns, […] on hypothalamic nuclei one hour after the injection (Cushing, B. S., et Al., 2003; Yamamoto, Y., et al., 2004). We then decided to inject 2 μg of OT in Magel2 KO and wild type newborns, 3 to 5 hours after birth, the time when wild type newborns started to suckle but not the mutant neonates. […] The level of lethality is similar after an injection of saline solution (4/28 dead pups) or oxytocin (3/28 dead pups) and is in the range of lethality normally observed in wild type cohorts. In a second step, ten litters including a total of 37 wild type and 40 Magel2 KO neonates, were injected with an oxytocin solution. At P2, we observed that 95% (35/37) of wild type and 93% (37/40) of Magel2 mutant newborns survived with milk previously detected in their stomach at P1. In parallel, we controlled that the rescue of Magel2 KO neonates was specifically due to the oxytocin injection and not to the injection stress and/or handling of neonates. […]

[1] = tested on: wild-type C57Bl6/J newborns; assay: Injection of SSR126768A (antagonist of the oxytocin receptor) in wild type newborns: feeding and lethality; format: in vivo, mouse
Method: A first cohort of C57B16 wild type newborns were removed from their mothers 1-1h30 after their birth and very rapidly were given a single s.c. injection (20 μl) of vehicle control (0.2% ethanol in distilled water) or 3 μg (in 20 μl of 0.2% ethanol in distilled water) of SSR126768A (OTA). […] of C57B16 wild type newborns were injected 12-24 hours after birth. The dose of OTA used was based on previous publications (Serradeil-Le Gal, C., et al., 2004).
We chose to use the Oxytocin antagonist SSR126768A (a gift from C. Serradeil-Le Gal, Sanofi-Synthélabo Recherche, Toulouse, France) because it was already well characterized.
Taking in account all the previous data, we hypothesized that OT deficiency might be responsible for the Magel2 KO phenotype at birth. Consequently, we decided to inject the SSR 126768A compound, a specific OT antagonist (OTA) with high affinity with the OT receptor (Serradeil-Le Gal, C., et al., 2004). We proceeded to a single injection of 3 μg (20 μl) in 68 wild-type C57B16/J newborns (9 litters), 1 to 1.5 hour after birth. In parallel, in the same conditions, we injected the vehicle […] in 48 wild-type C57B16/J newborns (7 litters). Then, 12 (+/−3) hours after the injection time, we observed than 54% (37/68) of newborns injected with OTA had no milk in their stomach versus 4% (2/48) of newborns injected with vehicle. At P1 (24-36 h old), we observed than 48% (33/68) of newborns injected with OTA were dead versus 4% (2/48) of newborns injected with vehicle control. […] Thus, the SSR 126768A OTA at a dose of 3 μg appeared to have a specific effect, preventing the feeding process and leading to death, only when it was injected in a specific window of time after birth, before the suckling activity was initiated. This phenotype simulates the Magel2 KO feeding phenotype at birth.

OTR = conditions: cited from earlier work
rats = conditions: cited from earlier work

| SMILES | rescue of the phenotype of Magel2 deficient neonates (Magel2 KO neonates) | survival 48 hours later ([1]; 3 μg in 20 μl injected 12-24 hours after birth, 42 wild-type pups) | newborns dead at P1 ([1]; single s.c. injection of 3 μg, 1 to 1.5 hour after birth, P1 (24-36 h old), vehicle 4% (2/48)) [%] | newborns with no milk in their stomach ([1]; single s.c. injection of 3 μg, 1 to 1.5 hour after birth, observed 12 (+/−3) hours after injection, vehicle 4% (2/48)) [%] | selectivity (OTR) | affinity for OTR (OTR; different species, including mouse) | lethality or secondary effect (rats; 1, 3 or 10 μg/g in rats) | duration of effect on uterus (rats; after administration of a dose as low as 3 μg/g) [h] |
| --- | --- | --- | --- | --- | --- | --- | --- | --- |
| NC(=O)CC[C@@H]1NC(=O)[C@H](Cc2ccccc2)NC(=O)[C@H](Cc2ccc(O)cc2)NC(=O)[C@@H](N)CSSC[C@@H](C(=O)N2CCC[C@H]2C(=O)N[C@@H](CCCN=C(N)N)C(=O)NCC(N)=O)NC(=O)[C@H](CC(N)=O)NC1=O [AVP, Arginine-Vasopressin] | did not rescue the phenotype |  |  |  |  |  |  |  |
| CCN(Cc1cccnc1)C(=O)c1ccc(Cl)c([C@]2(C)C(=O)N(Cc3ccc(OC)cc3OC)c3ccc(Cl)cc32)c1.Cl [SSR126768A, 4-chloro-3-[(3R)-(+)-5-chloro-1-(2,4-dimethoxybenzyl)-3-methyl-2-oxo-2,3-dihydro-1H-indol-3-yl]-N-ethyl-N-(3-pyridylmethyl)-benzamide, hydrochloride] |  | all of them survived | 48 | 54 | high selectivity | high affinity | without inducing lethality or any strong secondary effect | 24 |

Source: US9125862B2, “Methods for the treatment of Prader-Willi-like syndrome or non-organic failure to thrive (NOFITT) feeding disorder using an agonist of the oxytocin receptor” (Institut National de la Sante et de la Rechereche Medicale …, priority 2010, dated 2015)
